# Source: patent US6376426B1, “Herbicidal 3-(heterocycl-1-yl)-uracils” (BASF Aktiengesellschaft, priority 1999, dated 2002)
# How the values were obtained:
# Assay type in all cases: in vivo
# Ambrosia = experiment: Pre-emergence herbicidal test, Ambrosia; details: 100 g/ha
# Experimental: (§1) The pre-emergence tests involve spraying a liquid formulation of the compound onto the soil in which the seeds of the plant species mentioned above has recently been sown.
# (§2) The soil used in the tests is a prepared horticultural loam. The formulations used in the tests are prepared from solutions of the test compounds in acetone containing 0.4% by weight of an alkylphenol/ethylene oxide condensate available under the trade mark TRITON X-155. […] In these tests untreated sown soil are used as controls.
# (§3) The herbicidal effects of the test compounds are assessed visually twenty-one days after spraying the foliage and the soil and are recorded on a 0-9 scale. A rating 0 indicates growth as untreated control, a rating 9 indicates death. An increase of 1 unit on the linear scale approximates to a 10% increase in the level of effect.
# Ipomoea hederacea [1] = experiment: Post-emergence herbicidal test, IPOHE; parameters: key to herbicidal effect (0-9 scale) IPOHE / herbicidal rating IPOHE: A rating 0 indicates growth as untreated control; a rating 9 indicates death; details: POST, 21 days after spraying
# Experimental: (§4) To evaluate their herbicidal activity, compounds according to the invention are tested using a representative range of plants:
# (§5) […] After spraying, the plants are placed on greenhouse benches and are cared for in the usual manner, commensurate with conventional greenhouse practices.
# as §3
# Zea mays [2] = experiment: Pre-emergence herbicidal test, ZEAMX; parameters: key to herbicidal effect (0-9 scale) ZEAMX / herbicidal rating ZEAMX: A rating 0 indicates growth as untreated control; a rating 9 indicates death; details: for herbicidal effect (0-9 scale) ZEAMX: PRE, 21 days after spraying
# Experimental: as §4, §1, §2, §3
# Triticum aestivum [3] = experiment: Post-emergence herbicidal test, TRZAW; parameters: key to herbicidal effect (0-9 scale) TRZAW: A rating 0 indicates growth as untreated control; a rating 9 indicates death; details: for herbicidal effect (0-9 scale) TRZAW: POST, 21 days after spraying
# Experimental: as §4, §5, §3
# Echinochloa crus-galli [4] = experiment: Post-emergence herbicidal test, ECHCG; details: 21 days after spraying
# Experimental: as §4, §5, §3
# Galium aparine [5] = experiment: Pre-emergence herbicidal test, GALAP; details: PRE, 21 days after spraying
# Experimental: as §4, §1, §2, §3
# Echinochloa crus-galli [6] = experiment: Pre-emergence herbicidal test, ECHCG; details: 21 days after spraying
# Experimental: as §4, §1, §2, §3
# Galium aparine [7] = experiment: Post-emergence herbicidal test, GALAP; parameters: key to herbicidal effect (0-9 scale) GALAP / herbicidal rating GALAP: A rating 0 indicates growth as untreated control; a rating 9 indicates death; details: for herbicidal effect (0-9 scale) GALAP: POST, 21 days after spraying
# Experimental: as §4, §5, §3
# Setaria viridis [8] = experiment: Pre-emergence herbicidal test, SETVI; parameters: key to herbicidal effect (0-9 scale) SETVI / herbicidal rating SETVI: A rating 0 indicates growth as untreated control; a rating 9 indicates death; details: for herbicidal effect (0-9 scale) SETVI: PRE, 21 days after spraying
# Experimental: as §4, §1, §2, §3
# Zea mays [9] = experiment: Post-emergence herbicidal test, ZEAMX; details: 21 days after spraying
# Experimental: as §4, §5, §3
# [10] = tested on: representative range of plants; experiment: Herbicidal activity, pre- and post-emergence, overall; details: both in pre- and post-emergence
# Experimental: as §4, §1
# The soil used in the tests is a prepared horticultural loam. The formulations used in the tests are prepared from solutions of the test compounds in acetone containing 0.4% by weight of an alkylphenol/ethylene oxide condensate available under the trade mark TRITON X-155. These acetone solutions are diluted with water and the resulting formulations applied at dosage levels corresponding to 1000 g and 250 g/ha of active material per hectare in a volume equivalent to 900 litres per hectare. In these tests untreated sown soil are used as controls.
# These acetone solutions are diluted with water and the resulting formulations applied at dosage levels equivalent to about 1000, 800, 400, 250 or 100 g/ha per hectare of test compound per pot. After spraying, the plants are placed on greenhouse benches and are cared for in the usual manner, commensurate with conventional greenhouse practices.
# as §3
# Stellaria media [11] = experiment: Pre-emergence herbicidal test, STEME; parameters: key to herbicidal effect (0-9 scale) STEME / herbicidal rating STEME: A rating 0 indicates growth as untreated control; a rating 9 indicates death; details: PRE, 21 days after spraying
# Experimental: as §4, §1, §2, §3
# Cyperus = experiment: Pre-emergence herbicidal test, Cyperus; details: 100 g/ha
# Experimental: as §1, §2, §3
# Alopecurus myosuroides [12] = experiment: Pre-emergence herbicidal test, ALOMY; details: PRE, 21 days after spraying
# Experimental: as §4, §1, §2, §3
# Matricaria inodora [13] = experiment: Pre-emergence herbicidal test, MATIN; parameters: key to herbicidal effect (0-9 scale) MATIN / herbicidal rating MATIN: A rating 0 indicates growth as untreated control; a rating 9 indicates death; details: for herbicidal effect (0-9 scale) MATIN: PRE, 21 days after spraying
# Experimental: as §4, §1, §2, §3
# Alopecurus myosuroides [14] = experiment: Post-emergence herbicidal test, ALOMY; details: 21 days after spraying
# Experimental: as §4, §5, §3
# [15] = tested on: representative range of plants; experiment: Pre-emergence herbicidal test, summary over the plants tested; details: 400 g/ha
# Experimental: as §4, §1, §2, §3
# Stellaria media [16] = experiment: Post-emergence herbicidal test, STEME; parameters: key to herbicidal effect (0-9 scale) STEME / herbicidal rating STEME: A rating 0 indicates growth as untreated control; a rating 9 indicates death; details: POST, 21 days after spraying
# Experimental: as §4, §5, §3
# Matricaria inodora [17] = experiment: Post-emergence herbicidal test, MATIN; parameters: key to herbicidal effect (0-9 scale) MATIN / herbicidal rating MATIN: A rating 0 indicates growth as untreated control; a rating 9 indicates death; details: POST, 21 days after spraying
# Experimental: as §4, §5, §3
# Setaria viridis [18] = experiment: Post-emergence herbicidal test, SETVI; parameters: key to herbicidal effect (0-9 scale) SETVI / herbicidal rating SETVI: A rating 0 indicates growth as untreated control; a rating 9 indicates death; details: for herbicidal effect (0-9 scale) SETVI: POST, 21 days after spraying
# Experimental: as §4, §5, §3
# [19] = tested on: representative range of plants; experiment: Post-emergence herbicidal test, summary over the plants tested
# Experimental: as §4, §5, §3
# Ipomoea hederacea [20] = experiment: Pre-emergence herbicidal test, IPOHE; parameters: key: A rating 0 indicates growth as untreated control; a rating 9 indicates death; details: 21 days after spraying
# Experimental: as §4, §1, §2, §3
# Triticum aestivum [21] = experiment: Pre-emergence herbicidal test, TRZAW; details: 21 days after spraying
# Experimental: as §4, §1, §2, §3
# Abutilon theophrasti [22] = experiment: Post-emergence herbicidal test, ABUTH; parameters: key to herbicidal effect (0-9 scale) ABUTH / herbicidal rating ABUTH: A rating 0 indicates growth as untreated control; a rating 9 indicates death; details: POST, 21 days after spraying
# Experimental: as §4, §5, §3
# Abutilon theophrasti [23] = experiment: Pre-emergence herbicidal test, ABUTH; parameters: key to herbicidal effect (0-9 scale) ABUTH / herbicidal rating ABUTH: A rating 0 indicates growth as untreated control; a rating 9 indicates death; details: for herbicidal effect (0-9 scale) ABUTH: PRE, 21 days after spraying
# Experimental: as §4, §1, §2, §3
compound,measurement,setting,value
Cn1c(C(F)(F)F)cc(=O)n(-n2ncc3cc([N+](=O)[O-])ccc32)c1=O [Example 7],control of Ambrosia,Ambrosia,good control
same,herbicidal effect (0-9 scale) IPOHE,Ipomoea hederacea [1]; 25 g/ha,9
same,herbicidal effect (0-9 scale) IPOHE,Ipomoea hederacea [1]; 100 g/ha,9
same,herbicidal effect (0-9 scale) IPOHE,Ipomoea hederacea [1]; 400 g/ha,9
same,herbicidal effect (0-9 scale) ZEAMX,Zea mays [2]; 100 g/ha,0
same,herbicidal effect (0-9 scale) ZEAMX,Zea mays [2]; 400 g/ha,4
same,selectivity in maize,"Zea mays [2]; pre-emergence, 100 g/ha",surprisingly good selectivity
same,herbicidal effect (0-9 scale) TRZAW,Triticum aestivum [3]; 25 g/ha,0
same,herbicidal effect (0-9 scale) TRZAW,Triticum aestivum [3]; 100 g/ha,1
same,herbicidal effect (0-9 scale) TRZAW,Triticum aestivum [3]; 400 g/ha,3
same,wheat tolerance,"Triticum aestivum [3]; post-emergence, 100 g/ha",good wheat tolerance
same,herbicidal effect (0-9 scale) ECHCG,Echinochloa crus-galli [4]; 25 g/ha,2
same,herbicidal effect (0-9 scale) ECHCG,Echinochloa crus-galli [4]; 100 g/ha,7
same,herbicidal effect (0-9 scale) ECHCG,Echinochloa crus-galli [4]; 400 g/ha,8
same,herbicidal effect (0-9 scale) GALAP,Galium aparine [5]; 100 g/ha,4
same,herbicidal effect (0-9 scale) GALAP,Galium aparine [5]; 400 g/ha,8
same,herbicidal effect (0-9 scale) ECHCG,Echinochloa crus-galli [6]; 100 g/ha,7
same,herbicidal effect (0-9 scale) ECHCG,Echinochloa crus-galli [6]; 400 g/ha,8
same,herbicidal effect (0-9 scale) GALAP,Galium aparine [7]; 25 g/ha,6
same,herbicidal effect (0-9 scale) GALAP,Galium aparine [7]; 100 g/ha,8
same,herbicidal effect (0-9 scale) GALAP,Galium aparine [7]; 400 g/ha,9
same,control of Galium aparine,"Galium aparine [7]; post-emergence, 100 g/ha",excellent control
same,herbicidal effect (0-9 scale) SETVI,Setaria viridis [8]; 100 g/ha,8
same,herbicidal effect (0-9 scale) SETVI,Setaria viridis [8]; 400 g/ha,9
same,control of Setaria,"Setaria viridis [8]; pre-emergence, 100 g/ha",good control
same,herbicidal effect (0-9 scale) ZEAMX,Zea mays [9]; 25 g/ha,2
same,herbicidal effect (0-9 scale) ZEAMX,Zea mays [9]; 100 g/ha,3
same,herbicidal effect (0-9 scale) ZEAMX,Zea mays [9]; 400 g/ha,5
same,herbicidal performance,[10],good performance
same,herbicidal effect (0-9 scale) STEME,Stellaria media [11]; 100 g/ha,5
same,herbicidal effect (0-9 scale) STEME,Stellaria media [11]; 400 g/ha,9
same,control of Cyperus,Cyperus,good control
same,herbicidal effect (0-9 scale) ALOMY,Alopecurus myosuroides [12]; 100 g/ha,3
same,herbicidal effect (0-9 scale) ALOMY,Alopecurus myosuroides [12]; 400 g/ha,6
same,herbicidal effect (0-9 scale) MATIN,Matricaria inodora [13]; 100 g/ha,9
same,herbicidal effect (0-9 scale) MATIN,Matricaria inodora [13]; 400 g/ha,9
same,control of Matricaria,"Matricaria inodora [13]; pre-emergence, 100 g/ha",good control
same,herbicidal effect (0-9 scale) ALOMY,Alopecurus myosuroides [14]; 25 g/ha,2
same,herbicidal effect (0-9 scale) ALOMY,Alopecurus myosuroides [14]; 100 g/ha,4
same,herbicidal effect (0-9 scale) ALOMY,Alopecurus myosuroides [14]; 400 g/ha,6
same,control of the weeds,[15],all of the weeds except Alopecurus were well controlled
same,herbicidal effect (0-9 scale) STEME,Stellaria media [16]; 25 g/ha,4
same,herbicidal effect (0-9 scale) STEME,Stellaria media [16]; 100 g/ha,8
same,herbicidal effect (0-9 scale) STEME,Stellaria media [16]; 400 g/ha,9
same,herbicidal effect (0-9 scale) MATIN,Matricaria inodora [17]; 25 g/ha,7
same,herbicidal effect (0-9 scale) MATIN,Matricaria inodora [17]; 100 g/ha,8
same,herbicidal effect (0-9 scale) MATIN,Matricaria inodora [17]; 400 g/ha,9
same,herbicidal effect (0-9 scale) SETVI,Setaria viridis [18]; 25 g/ha,8
same,herbicidal effect (0-9 scale) SETVI,Setaria viridis [18]; 100 g/ha,9
same,herbicidal effect (0-9 scale) SETVI,Setaria viridis [18]; 400 g/ha,9
same,control of Setaria,"Setaria viridis [18]; post-emergence, 100 g/ha",excellent control
same,control of all of the broadleaf weeds,[19]; 100 g/ha,excellent control
same,control of the weeds,[19]; dose not given,good cross spectrum control on both broadleaf weeds and grasses except Alopecurus
same,crop tolerance,[19]; dose not given,no observable crop tolerance
same,herbicidal effect (0-9 scale) IPOHE,Ipomoea hederacea [20]; 100 g/ha,7
same,herbicidal effect (0-9 scale) IPOHE,Ipomoea hederacea [20]; 400 g/ha,9
same,herbicidal effect (0-9 scale) TRZAW,Triticum aestivum [21]; 100 g/ha,1
same,herbicidal effect (0-9 scale) TRZAW,Triticum aestivum [21]; 400 g/ha,4
same,herbicidal effect (0-9 scale) ABUTH,Abutilon theophrasti [22]; 25 g/ha,8
same,herbicidal effect (0-9 scale) ABUTH,Abutilon theophrasti [22]; 100 g/ha,9
same,herbicidal effect (0-9 scale) ABUTH,Abutilon theophrasti [22]; 400 g/ha,9
same,herbicidal effect (0-9 scale) ABUTH,Abutilon theophrasti [23]; 100 g/ha,9
same,herbicidal effect (0-9 scale) ABUTH,Abutilon theophrasti [23]; 400 g/ha,9
same,control of Abutilon,"Abutilon theophrasti [23]; pre-emergence, 100 g/ha",good control
